Measured values taken from PubChem BioAssay (NCI).
Values joined by “and” are separate entries in the source; they are usually repeats but may differ in a detail not shown here. Equal values may be shown once.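 Dose response: 5 concentrations. Exposure: 48 h. Format: 96-well plates. Endpoint: linear interpolation; highest concentration if not reached. GI50 marks 50% less growth. At the TGI there is no net growth.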

Experiments:
Test in all cases: NCI-60 cell line screen, 48 h
CAKI-1 renal = test system: CAKI-1 renal
MCF7 breast = test system: MCF7 breast
OVCAR-4 ovarian = test system: OVCAR-4 ovarian
SF-268 CNS = test system: SF-268 CNS
NCI-H226 lung = test system: NCI-H226 lung
RXF 393 renal = test system: RXF 393 renal
HCC-2998 colon = test system: HCC-2998 colon
HCT-15 colon = test system: HCT-15 colon
OVCAR-8 ovarian = test system: OVCAR-8 ovarian
ACHN renal = test system: ACHN renal

SMILES | GI50 (CAKI-1 renal) | TGI (CAKI-1 renal) | GI50 (MCF7 breast) | TGI (MCF7 breast) | GI50 (OVCAR-4 ovarian) | TGI (OVCAR-4 ovarian) | GI50 (SF-268 CNS) | TGI (SF-268 CNS) | GI50 (NCI-H226 lung) | TGI (NCI-H226 lung) | GI50 (RXF 393 renal) | TGI (RXF 393 renal) | GI50 (HCC-2998 colon) | TGI (HCC-2998 colon) | GI50 (HCT-15 colon) | TGI (HCT-15 colon) | GI50 (OVCAR-8 ovarian) | TGI (OVCAR-8 ovarian) | GI50 (ACHN renal) | TGI (ACHN renal)
CCNc1cc(-c2cccc(OC(F)(F)F)c2)nc2ccc(N3CCCC3)cc12 | 1.81 µM | 4.9 µM | 1.84 µM | 6.54 µM | 2.35 µM | 10.7 µM | 1.79 µM | 3.79 µM | 1.67 µM | 4.53 µM | 1.18 µM | 3.17 µM | 2.27 µM | 6.06 µM | 1.71 µM | 5.96 µM | 2.51 µM | 8.24 µM | 2.28 µM | 7.61 µM
OCc1ccc(N2CCc3cccc(F)c3C2)cc1Cl | 1.19 µM | 21.8 µM |  | 53.4 µM | 0.0279 µM | 0.201 µM | 24.5 µM | > 89.4 µM | 0.0191 µM | 0.0936 µM | 12.6 µM | 27.9 µM | 1.96 µM | 11 µM | 10.4 µM | 36.3 µM | 5.85 µM | 41.9 µM | 20.7 µM | 67.3 µM
COc1ccc(/C=C/C(=O)/C=C/c2cc3ccccc3[nH]c2=O)cc1 | 4.3 µM | 17.8 µM | 2.11 µM | 11.1 µM | 9.73 µM | > 100 µM | 3.11 µM | 11.4 µM | 4.42 µM | 19.7 µM | 3.31 µM | 11.9 µM | 2.19 µM | 4.13 µM | 2.41 µM | 7.69 µM | 3.55 µM | 22.4 µM | 3.81 µM | 15.5 µM
COC(=O)c1cc2c3ccccc3n3c(=O)c4cc5ccc(N(S(=O)(=O)c6ccc(C)cc6)S(=O)(=O)c6ccc(C)cc6)cc5nc4c(n1)c23 | > 100 µM | > 100 µM | > 100 µM | > 100 µM | > 100 µM | > 100 µM | 39.2 µM | > 100 µM | 33.8 µM | > 100 µM | 13.1 µM | 37.8 µM | > 100 µM | > 100 µM | > 100 µM | > 100 µM | > 100 µM | > 100 µM | 17.2 µM | 82.6 µM
Cc1ncc(C(=O)Nc2ccc(CN3CCN(C)CC3)c(C(F)(F)F)c2)cc1C#Cc1cnc2cccnn12 | 0.365 µM | 2.82 µM | 0.136 µM | 0.663 µM | 0.205 µM | 1.98 µM | 0.622 µM | 2.59 µM | 0.204 µM | 1.37 µM | 0.438 µM | 1.14 µM | 0.446 µM | 4.28 µM | 0.593 µM | 4.45 µM | 0.339 µM | 5.98 µM | 0.287 µM | 1.53 µM
CC(C)Nc1cc(-c2c[nH]c(C(=O)N[C@H](CO)c3cccc(Cl)c3)c2)c(Cl)cn1 | 1.17 µM and 1.87 µM | 19.1 µM and > 10 µM | 2.16 µM and 1.62 µM | 19.1 µM and > 10 µM | 3.68 µM and > 6.63 µM | 20.7 µM and > 10 µM | 4.46 µM and > 7.71 µM | 24.5 µM and > 10 µM | 3.17 µM and > 3.67 µM | 24.2 µM and > 10 µM | 2.14 µM and 1.06 µM | 15 µM and > 10 µM | 0.19 µM and 0.209 µM | 13.8 µM and > 10 µM | 2.89 µM and 2.68 µM | 14.4 µM and > 10 µM | 7.75 µM and 8.82 µM | 24.3 µM and > 10 µM | 2.24 µM and 2.08 µM | 14.9 µM and > 10 µM
CCCCCCCCCCCCCCCCCC1=NC(C)(C)CN1CC(C)O (stereo not drawn) | 14.4 µM | 29.4 µM | 3.09 µM | 14.1 µM | 12.5 µM | 28.4 µM | 1.94 µM | 4.06 µM | 18.8 µM | 38.5 µM | 14.2 µM | 31.9 µM | 6.01 µM | 18.9 µM | 1.88 µM | 3.95 µM | 3.99 µM | 14.5 µM | 7.94 µM | 21.9 µM
O=C(Nc1cc(C(F)(F)F)ccc1Cl)c1ccc(NC2=C(Cl)C(=O)N(Cc3ccccc3)C2=O)cc1 | 42.6 µM | > 100 µM | 11.6 µM | > 100 µM | 47.4 µM | > 100 µM | 32.7 µM | > 100 µM | 13.9 µM | 65.5 µM | 23.7 µM | 73 µM | 5.28 µM | 9.11 µM | 13.2 µM | > 100 µM | 14.6 µM | 41.3 µM | 23.8 µM | 64.9 µM
O=C1c2ccccc2-[n+]2ccc3c([nH]c4ccccc43)c21 |  | 2.07 µM |  | 0.834 µM |  | 2.02 µM |  | 1.3 µM |  | 3.08 µM |  | 1.26 µM |  | 0.484 µM |  | > 100 µM |  | > 100 µM |  | 4.08 µM
CC[C@H](Nc1ncnc2nc[nH]c12)c1nc2cccc(F)c2c(=O)n1-c1ccccc1 | 9.94 µM | > 100 µM | 8.73 µM | > 100 µM | > 100 µM | > 100 µM | 19.2 µM | > 100 µM | > 65.6 µM | > 100 µM | 1.35 µM | 17.4 µM | 58.6 µM | > 100 µM | 37.6 µM | > 100 µM | 44.6 µM | > 100 µM | 10.7 µM | > 100 µM
CC(C)c1cnn2c(NCc3ccccc3)cc(NC[C@H]3CCNC[C@@H]3O)nc12 | 0.472 µM and 1.65 µM | 9.13 µM and 11.4 µM | 0.13 µM and 0.186 µM | 4.83 µM and 4.03 µM | 0.304 µM and 0.597 µM | 2.8 µM and 3.62 µM | 0.402 µM and 0.648 µM | 4.63 µM and 2.72 µM | 0.766 µM and 0.725 µM | 4.01 µM and 5.53 µM | 0.352 µM and 1.03 µM | 1.09 µM and 2.83 µM | 0.534 µM and 0.645 µM | 5.55 µM and 3.51 µM | 2.94 µM and 2.69 µM | 15.2 µM and 12.2 µM | 0.555 µM and 0.745 µM | 11.6 µM and 8.68 µM | 0.833 µM and 1.55 µM | 10.5 µM and 9.73 µM
Nc1nonc1-c1nc2cnccc2n1C1CC1 | 1.45 µM | > 25 µM | 6.05 µM | > 17.3 µM | 7.4 µM | > 25 µM | 4.98 µM | > 25 µM | 0.739 µM | > 14.6 µM | 1.2 µM | 6.92 µM | 12.4 µM | > 25 µM | 6.61 µM | > 25 µM | 6.83 µM | > 25 µM | 6.25 µM | > 25 µM
C=CCNc1nc2c(s1)C(=O)c1ccccc1C2=O |  | 26.8 µM |  | 24.4 µM |  | 26.4 µM |  | 26 µM |  | 40.1 µM |  | 35.4 µM |  | 35.3 µM |  | 30.7 µM |  | 20.1 µM |  | 20.2 µM
COc1ccc2c(=O)cc(-c3ccccc3)[nH]c2c1 | 0.323 µM | > 100 µM | 0.387 µM | > 100 µM | 3.28 µM | > 100 µM | 1.28 µM | > 100 µM | 2.14 µM | > 100 µM | 0.762 µM |  | 1.27 µM | 8.9 µM | 0.518 µM | > 100 µM | 2.64 µM | > 46.6 µM | 4.22 µM | > 100 µM
CCOC(=O)c1cc2cc3c4c(c2oc1=O)CCCN4CCC3 |  | > 100 µM |  | 56.3 µM |  | > 100 µM |  | 71.3 µM |  | 51.3 µM |  | 39.4 µM |  | > 100 µM |  | > 100 µM |  | 72.9 µM |  | > 100 µM
